Data on five compounds can be found in US8129371B2, “Thienopyrimidine and pyrazolopyrimidine compounds and their use as mTOR kinase and PI3 kinase inhibitors” (Wyeth LLC, priority 2007, dated 2012).

Like-named read-outs stand apart in the source and are kept apart here.

One assay has as its target T1, Human mTOR (FLAG-TOR) (Homo sapiens, UniProt P42345).
T1 construct: FLAG
In words: Human mTOR kinase assay with purified enzyme, DELFIA format. Format: biochemical. An outline of the steps:
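DELFIA readout: Eu-anti-P(T389)-S6K antibody (40 ng/mL, 1 h) on captured His6-S6K from the stopped reaction. Kinase step used purified FLAG-tagged human mTOR with test compound in HEPES (pH 7.4)/MnCl2/DTT buffer, 2 h at room temperature (linear 1–6 h), terminated by EDTA/EGTA.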

Assay [1] has as its target T2, PI3K (Homo sapiens, UniProt P48736).
T2 construct: PI3 Kinase γ IC50; other: PI3 Kinase γ; other: PI3 Kinase γ isoform, fluorescence polarization
The assay can be described thus: Fluorescence polarization assay for PI3K. The class given is biochemical. The note with it: read-out: PI3 Kinase γ IC50. An outline of the steps: (§1)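 Fluorescence-polarization competition readout: after 30–60 min of PIP2/ATP turnover in 1% DMSO, a stop mix with GST-GRP (70 nM) and red probe (10 nM) was added.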
Background: Polarisation of emitted light reports the rotation of a fluorescent probe.

The target in assay [2] is T3, PI3K (Homo sapiens, UniProt P42336).
T3 construct: PI3 Kinase α IC50; other: PI3 Kinase α; other: PI3 Kinase α isoform, fluorescence polarization
The assay can be described thus: Fluorescence polarization assay for PI3K. Format: biochemical. The note with it: read-out: PI3 Kinase α IC50. An outline of the steps: as §1

Assay [3] concerns the target T4, PI3K (Homo sapiens, UniProt P42338).
T4 construct: PI3 Kinase β IC50; other: PI3 Kinase β; other: PI3 Kinase β isoform, fluorescence polarization
In words: Fluorescence polarization assay for PI3K. Format: biochemical. An outline of the steps:
as §1

The target of assay [4] is T5, PI3K (Homo sapiens, UniProt O00329).
T5 construct: PI3 Kinase δ IC50; other: PI3 Kinase δ; other: PI3 Kinase δ isoform, fluorescence polarization
T5 sequence (O00329 1-1044): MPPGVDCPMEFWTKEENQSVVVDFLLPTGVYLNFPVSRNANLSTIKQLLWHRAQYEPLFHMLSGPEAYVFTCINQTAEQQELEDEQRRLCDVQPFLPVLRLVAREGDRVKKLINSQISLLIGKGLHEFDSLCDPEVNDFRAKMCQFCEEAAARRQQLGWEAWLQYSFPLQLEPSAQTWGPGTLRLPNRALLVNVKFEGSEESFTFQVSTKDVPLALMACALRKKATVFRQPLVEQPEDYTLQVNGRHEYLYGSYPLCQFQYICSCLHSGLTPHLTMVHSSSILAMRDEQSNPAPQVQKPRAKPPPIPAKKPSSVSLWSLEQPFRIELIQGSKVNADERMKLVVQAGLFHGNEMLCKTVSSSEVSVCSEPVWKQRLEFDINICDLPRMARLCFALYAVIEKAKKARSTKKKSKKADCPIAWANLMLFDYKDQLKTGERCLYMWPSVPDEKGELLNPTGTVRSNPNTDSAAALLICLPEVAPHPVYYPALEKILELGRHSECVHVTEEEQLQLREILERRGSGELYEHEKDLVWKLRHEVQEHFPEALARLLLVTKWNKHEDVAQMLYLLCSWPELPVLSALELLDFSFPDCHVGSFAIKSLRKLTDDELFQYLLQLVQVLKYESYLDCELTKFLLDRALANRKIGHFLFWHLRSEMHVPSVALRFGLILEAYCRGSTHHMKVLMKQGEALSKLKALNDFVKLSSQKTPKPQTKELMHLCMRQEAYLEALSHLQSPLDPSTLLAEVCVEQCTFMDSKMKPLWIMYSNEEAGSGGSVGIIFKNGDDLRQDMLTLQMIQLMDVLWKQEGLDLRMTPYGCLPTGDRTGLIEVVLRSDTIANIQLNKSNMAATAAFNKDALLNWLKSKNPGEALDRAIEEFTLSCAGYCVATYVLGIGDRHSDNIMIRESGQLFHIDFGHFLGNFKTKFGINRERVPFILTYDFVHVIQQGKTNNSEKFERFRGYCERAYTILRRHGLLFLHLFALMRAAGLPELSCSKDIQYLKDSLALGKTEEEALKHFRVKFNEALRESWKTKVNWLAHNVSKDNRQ
The assay can be described thus: Fluorescence polarization assay for PI3K. The class given is biochemical. An outline of the steps:
as §1

For another assay, the system named is prostate line LNCap. The assay can be described thus: In vitro cell culture growth assay (MTS), LNCap. Format: cell-based. The settings on record: Homo sapiens, LNCaP, 72 h, LNCap cells, three days after drug treatment. An outline of the steps: (§2)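 Cells were plated and, one day later, treated with inhibitors. Three days after treatment, viable cell density was measured by MTS dye conversion, read as absorbance at 490 nm. Effects are expressed as percent of control growth versus vehicle-treated cells on the same plate.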

For a further assay, the system named is breast line MDA468. The assay can be described thus: In vitro cell culture growth assay (MTS), MDA468. Format: cell-based. The note with it: Homo sapiens, 72 h, MDA468 cells, three days after drug treatment. An outline of the steps:
as §2

Assay [5] has as its system acute lymphoblastic leukemia xenograft. The note with it: NOS/SCID xenograft mouse model; Teachey et al, Blood 2006; cited from earlier work.
[6] abbreviates: purified human mTOR enzyme, DELFIA format.
[7] abbreviates: PI3 Kinase γ isoform, fluorescence polarization.
Setting [8] is: PI3 Kinase α isoform, fluorescence polarization.
[9] abbreviates: PI3 Kinase β isoform, fluorescence polarization.
[10] abbreviates: PI3 Kinase δ isoform, fluorescence polarization.

In general, IC50 refers to the point on the concentration scale where inhibition reaches its midpoint.

T2 sequence (P48736 whole entry, canonical isoform): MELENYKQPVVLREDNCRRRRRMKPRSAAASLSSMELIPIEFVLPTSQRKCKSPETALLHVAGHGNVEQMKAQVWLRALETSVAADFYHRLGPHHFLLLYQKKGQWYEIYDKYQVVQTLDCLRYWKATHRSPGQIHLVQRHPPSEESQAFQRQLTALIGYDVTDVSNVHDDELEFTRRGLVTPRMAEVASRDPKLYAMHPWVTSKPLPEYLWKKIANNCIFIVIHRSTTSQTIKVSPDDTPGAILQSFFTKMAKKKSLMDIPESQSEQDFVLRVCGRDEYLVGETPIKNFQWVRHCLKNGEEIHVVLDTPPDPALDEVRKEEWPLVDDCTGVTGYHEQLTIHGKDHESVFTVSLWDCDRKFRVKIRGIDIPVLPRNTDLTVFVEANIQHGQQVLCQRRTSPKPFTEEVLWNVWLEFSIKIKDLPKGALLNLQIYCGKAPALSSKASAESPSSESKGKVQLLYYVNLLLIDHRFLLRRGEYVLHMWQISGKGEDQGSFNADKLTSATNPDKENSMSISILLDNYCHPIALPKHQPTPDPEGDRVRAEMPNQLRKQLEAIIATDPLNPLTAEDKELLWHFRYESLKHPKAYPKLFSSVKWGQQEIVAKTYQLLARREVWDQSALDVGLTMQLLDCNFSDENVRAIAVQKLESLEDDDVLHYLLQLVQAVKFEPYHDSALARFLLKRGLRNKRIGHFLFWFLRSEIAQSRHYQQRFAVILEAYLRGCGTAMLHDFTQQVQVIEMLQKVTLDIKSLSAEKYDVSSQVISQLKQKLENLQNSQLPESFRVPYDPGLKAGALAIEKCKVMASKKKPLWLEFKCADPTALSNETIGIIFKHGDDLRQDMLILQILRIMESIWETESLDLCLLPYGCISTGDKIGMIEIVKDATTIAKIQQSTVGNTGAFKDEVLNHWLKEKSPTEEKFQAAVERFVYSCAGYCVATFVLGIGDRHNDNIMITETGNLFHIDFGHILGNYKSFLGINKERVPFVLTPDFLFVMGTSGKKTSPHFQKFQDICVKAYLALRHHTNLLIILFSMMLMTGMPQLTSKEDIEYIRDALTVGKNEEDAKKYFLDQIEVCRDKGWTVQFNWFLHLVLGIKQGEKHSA
T3 sequence (P42336 whole entry, canonical isoform): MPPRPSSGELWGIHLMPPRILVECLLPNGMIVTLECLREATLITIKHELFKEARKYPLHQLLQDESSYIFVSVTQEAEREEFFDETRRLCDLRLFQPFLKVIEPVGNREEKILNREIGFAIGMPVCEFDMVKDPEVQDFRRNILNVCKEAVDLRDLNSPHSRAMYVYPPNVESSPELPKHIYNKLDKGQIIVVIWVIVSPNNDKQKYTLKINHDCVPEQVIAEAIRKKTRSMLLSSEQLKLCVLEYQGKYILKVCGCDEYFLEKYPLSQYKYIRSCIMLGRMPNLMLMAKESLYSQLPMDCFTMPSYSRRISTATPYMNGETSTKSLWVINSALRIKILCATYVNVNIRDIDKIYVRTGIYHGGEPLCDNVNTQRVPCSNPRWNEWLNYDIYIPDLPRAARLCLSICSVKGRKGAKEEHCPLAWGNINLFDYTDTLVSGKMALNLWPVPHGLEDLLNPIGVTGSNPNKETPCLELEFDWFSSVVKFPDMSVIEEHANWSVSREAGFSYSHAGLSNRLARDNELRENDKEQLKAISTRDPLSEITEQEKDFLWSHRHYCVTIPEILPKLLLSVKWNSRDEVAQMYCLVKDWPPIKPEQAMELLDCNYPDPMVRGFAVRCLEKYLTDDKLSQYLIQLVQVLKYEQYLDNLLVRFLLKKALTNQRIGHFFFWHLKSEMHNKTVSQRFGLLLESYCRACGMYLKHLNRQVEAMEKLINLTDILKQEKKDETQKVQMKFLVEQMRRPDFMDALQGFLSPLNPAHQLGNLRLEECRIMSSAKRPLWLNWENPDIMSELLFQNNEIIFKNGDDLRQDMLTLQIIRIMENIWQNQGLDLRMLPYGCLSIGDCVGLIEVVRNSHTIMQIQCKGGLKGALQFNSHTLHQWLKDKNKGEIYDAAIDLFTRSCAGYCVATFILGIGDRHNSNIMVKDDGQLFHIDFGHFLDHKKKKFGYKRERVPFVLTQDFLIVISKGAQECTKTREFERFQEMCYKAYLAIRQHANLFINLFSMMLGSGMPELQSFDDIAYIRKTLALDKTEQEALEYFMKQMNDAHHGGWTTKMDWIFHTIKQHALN
T4 sequence (P42338 whole entry, canonical isoform): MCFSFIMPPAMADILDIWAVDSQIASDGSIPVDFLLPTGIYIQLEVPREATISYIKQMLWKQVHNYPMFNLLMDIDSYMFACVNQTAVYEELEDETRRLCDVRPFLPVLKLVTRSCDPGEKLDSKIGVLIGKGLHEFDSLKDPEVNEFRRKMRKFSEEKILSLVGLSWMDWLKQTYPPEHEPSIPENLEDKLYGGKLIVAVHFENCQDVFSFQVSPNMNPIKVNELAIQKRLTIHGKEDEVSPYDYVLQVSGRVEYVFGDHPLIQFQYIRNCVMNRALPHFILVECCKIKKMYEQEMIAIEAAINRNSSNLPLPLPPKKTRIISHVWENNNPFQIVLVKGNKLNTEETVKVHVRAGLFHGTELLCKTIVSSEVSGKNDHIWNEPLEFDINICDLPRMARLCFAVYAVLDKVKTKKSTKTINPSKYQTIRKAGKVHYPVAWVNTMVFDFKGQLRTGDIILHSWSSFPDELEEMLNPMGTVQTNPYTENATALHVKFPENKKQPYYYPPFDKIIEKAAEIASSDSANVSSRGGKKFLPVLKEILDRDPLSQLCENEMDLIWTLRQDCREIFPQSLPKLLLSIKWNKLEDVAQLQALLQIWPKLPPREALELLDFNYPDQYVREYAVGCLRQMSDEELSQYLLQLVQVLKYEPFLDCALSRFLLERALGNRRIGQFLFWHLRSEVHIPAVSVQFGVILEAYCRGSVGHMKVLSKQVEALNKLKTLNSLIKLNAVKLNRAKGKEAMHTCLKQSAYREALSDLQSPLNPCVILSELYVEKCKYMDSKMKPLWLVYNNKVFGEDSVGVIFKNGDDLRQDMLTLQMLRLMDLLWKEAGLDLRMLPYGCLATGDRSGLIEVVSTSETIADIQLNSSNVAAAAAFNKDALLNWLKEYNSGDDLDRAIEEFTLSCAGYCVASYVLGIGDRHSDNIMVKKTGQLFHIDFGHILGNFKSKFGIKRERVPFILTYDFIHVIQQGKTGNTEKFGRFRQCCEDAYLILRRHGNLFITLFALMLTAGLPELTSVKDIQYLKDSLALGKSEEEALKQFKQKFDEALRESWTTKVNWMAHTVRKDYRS

For `COC1CCC(n2ncc3c(N4CC5CCC(C4)O5)nc(-c4ccc(NC(=O)NC5CC5)cc4)nc32)CC1` (centres unmarked) [Example 302, 1-cyclopropyl-3-{4-[1-(4-methoxycyclohexyl)-4-(8-oxa-3-azabicyclo[3.2.1]oct-3-yl)-1H-pyrazolo[3,4-d]pyrimidin-6-yl]phenyl}urea], the IC50 against Human mTOR (FLAG-TOR) (setting [6]) was 0.3 nM; on PI3K [1] (setting [7]), 8020 nM; at PI3K [2] (setting [8]), 3920 nM; against PI3K [3] (setting [9]), more than 10000 nM; against PI3K [4] (setting [10]) it was 1740 nM; in the assay on prostate line LNCap, 2 nM. Further, the IC50 with breast line MDA468 came to 7 nM.
Consider `O=C(Nc1ccc(-c2nc(N3CC4CCC(C3)O4)c3cnn(CC(F)(F)F)c3n2)cc1)OCCO` [Example 110, 2-hydroxyethyl {4-[4-(8-oxa-3-azabicyclo[3.2.1]oct-3-yl)-1-(2,2,2-trifluoroethyl)-1H-pyrazolo[3,4-d]pyrimidin-6-yl]phenyl}carbamate], for which the IC50 against Human mTOR (FLAG-TOR) is 0.6 nM; at PI3K [1] (PI3 Kinase γ), 12000 nM; at PI3K [2] (PI3 Kinase α), 1050 nM; against PI3K [3] (PI3 Kinase β) it was more than 10000 nM; against PI3K [4] (PI3 Kinase δ), 12000 nM; with prostate line LNCap, 2.3 nM. In the assay with breast line MDA468, this compound gave a 50% inhibitory concentration (IC50) of 42 nM.
With `COC1CCC(n2ncc3c(N4CC5CCC(C4)O5)nc(-c4ccc(NC(=O)Nc5ccc(N6CCN(C)CC6)cc5)cc4)nc32)CC1` (centres unmarked) [Example 304, 1-{4-[1-(4-methoxycyclohexyl)-4-(8-oxa-3-azabicyclo[3.2.1]oct-3-yl)-1H-pyrazolo[3,4-d]pyrimidin-6-yl]phenyl}-3-[4-(4-methylpiperazin-1-yl)phenyl]urea], the IC50 is 0.265 nM against Human mTOR (FLAG-TOR) (setting [6]); 720 nM at PI3K [1] (setting [7]); 239 nM at PI3K [2] (setting [8]); 2840 nM on PI3K [3] (setting [9]); 200 nM against PI3K [4] (setting [10]); less than 1 nM in the assay with prostate line LNCap. In the assay on breast line MDA468, the IC50 came to 1 nM.
Consider `O=C(Nc1ccc(-c2nc(N3C[C@@H]4C[C@H]3CO4)c3cnn(CC(F)(F)F)c3n2)cc1)NC1CC1` [Example 296, 1-cyclopropyl-3-(4-{4-[(1S,4S)-2-oxa-5-azabicyclo[2.2.1]hept-5-yl]-1-(2,2,2-trifluoroethyl)-1H-pyrazolo[3,4-d]pyrimidin-6-yl}phenyl)urea], for which the IC50 against Human mTOR (FLAG-TOR) (setting [6]) was 1.87 nM; at PI3K [1] (setting [7]), 1070 nM; on PI3K [2] (setting [8]), 4050 nM; on PI3K [3] (setting [9]), more than 10000 nM; on PI3K [4] (setting [10]) it was 6820 nM; with prostate line LNCap it was 67 nM. This compound also displayed an IC50 with breast line MDA468 of 138 nM.
Regarding `CO[C@H]1C[C@@H]2CC[C@@H](C)[C@@](O)(O2)C(=O)C(=O)N2CCCC[C@H]2C(=O)O[C@H]([C@H](C)C[C@@H]2CC[C@@H](OC(=O)C(C)(CO)CO)[C@H](OC)C2)CC(=O)[C@H](C)/C=C(\C)[C@@H](O)[C@@H](OC)C(=O)[C@H](C)C[C@H](C)/C=C/C=C/C=C/1C` [Torisel], in assay [5], the “activity in xenograft mouse model of acute lymphoblastic leukemia” value is on record as “active”.
